In ChEMBL document CHEMBL1201862, “PubChem BioAssay data set” (2004):
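1) Cells in 96-well plates. 2) Compound, 48 h, 5 concentrations. 3) Linear interpolation between surrounding doses. 4) Unreached endpoint = highest concentration. GI50 = concentration required for 50% inhibition of growth.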 Activity calls are given as the source filed them. Rule as the data show it: active = GI50 up to about 1.1 µM and inactive = higher.

Experiments:
Assay in all cases: DTP human tumour cell line panel, 48 h
ACHN = test system: ACHN
BT-549 = test system: BT-549
DU-145 = test system: DU-145
EKVX = test system: EKVX
HOP-92 = test system: HOP-92
MOLT-4 = test system: MOLT-4
NCI/ADR-RES = test system: NCI/ADR-RES
OVCAR-8 = test system: OVCAR-8
PC-3 = test system: PC-3
SN12C = test system: SN12C
SR = test system: SR
T47D = test system: T47D
TK-10 = test system: TK-10
UACC-62 = test system: UACC-62
HOP-62 = test system: HOP-62
OVCAR-4 = test system: OVCAR-4
SK-MEL-28 = test system: SK-MEL-28
SW-620 = test system: SW-620
SK-MEL-2 = test system: SK-MEL-2

Measured: GI50

c1ccc2nc3c(nc2c1)sc1nc2ccccc2n13
inactive: ACHN 92 µM | BT-549 > 100 µM | DU-145 > 100 µM | EKVX > 100 µM | HOP-92 57 µM | MOLT-4 > 100 µM | NCI/ADR-RES > 100 µM | OVCAR-8 > 100 µM | PC-3 > 100 µM | SN12C > 100 µM | SR > 100 µM | T47D 8 µM | TK-10 > 100 µM | UACC-62 > 100 µM

Brc1ccc(-c2ccc(-c3ccc(-c4ccc(Br)s4)s3)s2)s1
inactive: ACHN > 100 µM | BT-549 > 100 µM | DU-145 > 100 µM | EKVX > 100 µM | HOP-62 > 100 µM | HOP-92 > 100 µM | MOLT-4 > 100 µM | NCI/ADR-RES > 100 µM | OVCAR-4 > 100 µM | OVCAR-8 > 100 µM | PC-3 > 100 µM | SK-MEL-28 > 100 µM | SN12C > 100 µM | SR > 100 µM | SW-620 > 100 µM | T47D > 100 µM | TK-10 > 100 µM | UACC-62 > 100 µM

CC1=C2CC(C)(C)CC(=O)C2(C)CCC1=O (stereo not drawn)
inactive: ACHN > 100 µM | BT-549 > 100 µM | DU-145 > 100 µM | EKVX > 100 µM | HOP-62 > 100 µM | MOLT-4 > 100 µM | NCI/ADR-RES > 100 µM | OVCAR-4 > 100 µM | OVCAR-8 > 100 µM | PC-3 > 100 µM | SK-MEL-28 > 100 µM | SK-MEL-2 > 100 µM | SN12C > 100 µM | SR 94.2 µM | SW-620 > 100 µM | T47D > 100 µM | TK-10 > 100 µM | UACC-62 > 100 µM

Cc1cc(C)c(N[S+]([O-])c2cccc([N+](=O)[O-])c2)c(C)c1 (stereo not drawn)
inactive: ACHN > 100 µM | BT-549 > 100 µM | DU-145 > 100 µM | HOP-62 > 100 µM | HOP-92 > 100 µM | MOLT-4 > 100 µM | NCI/ADR-RES > 100 µM | OVCAR-8 > 100 µM | PC-3 > 100 µM | SK-MEL-28 > 100 µM | SN12C > 100 µM | SR > 100 µM | SW-620 > 100 µM | T47D > 100 µM | TK-10 > 100 µM

Cc1ccccc1N(C)S(=O)(=O)c1ccccc1[N+](=O)[O-]
inactive: ACHN 81.8 µM | BT-549 33 µM | DU-145 > 100 µM | EKVX 32.2 µM | HOP-62 48.2 µM | MOLT-4 27.9 µM | NCI/ADR-RES 25.1 µM | OVCAR-4 67.6 µM | OVCAR-8 75 µM | PC-3 38.9 µM | SK-MEL-28 54.1 µM | SK-MEL-2 47.5 µM | SN12C > 100 µM | SR 36.6 µM | SW-620 84.1 µM | T47D 58.1 µM | TK-10 > 100 µM | UACC-62 38.8 µM
